Among the data in patent US20230092890A1, “1, 3, 4-Oxadiazole derivative compounds as histone deacetylase 6 inhibitor, and the pharmaceutical composition comprising the same” (Chong Kun Dang Pharmaceutical Corp., priority 2019, published 2023) are IC50 values, retold here.

One experiment concerns the target T1, HDAC6 human recombinant (Homo sapiens, UniProt Q9UBN7).
T1 construct: purchased Calbiochem 382180
T1 sequence (Q9UBN7 1-1215): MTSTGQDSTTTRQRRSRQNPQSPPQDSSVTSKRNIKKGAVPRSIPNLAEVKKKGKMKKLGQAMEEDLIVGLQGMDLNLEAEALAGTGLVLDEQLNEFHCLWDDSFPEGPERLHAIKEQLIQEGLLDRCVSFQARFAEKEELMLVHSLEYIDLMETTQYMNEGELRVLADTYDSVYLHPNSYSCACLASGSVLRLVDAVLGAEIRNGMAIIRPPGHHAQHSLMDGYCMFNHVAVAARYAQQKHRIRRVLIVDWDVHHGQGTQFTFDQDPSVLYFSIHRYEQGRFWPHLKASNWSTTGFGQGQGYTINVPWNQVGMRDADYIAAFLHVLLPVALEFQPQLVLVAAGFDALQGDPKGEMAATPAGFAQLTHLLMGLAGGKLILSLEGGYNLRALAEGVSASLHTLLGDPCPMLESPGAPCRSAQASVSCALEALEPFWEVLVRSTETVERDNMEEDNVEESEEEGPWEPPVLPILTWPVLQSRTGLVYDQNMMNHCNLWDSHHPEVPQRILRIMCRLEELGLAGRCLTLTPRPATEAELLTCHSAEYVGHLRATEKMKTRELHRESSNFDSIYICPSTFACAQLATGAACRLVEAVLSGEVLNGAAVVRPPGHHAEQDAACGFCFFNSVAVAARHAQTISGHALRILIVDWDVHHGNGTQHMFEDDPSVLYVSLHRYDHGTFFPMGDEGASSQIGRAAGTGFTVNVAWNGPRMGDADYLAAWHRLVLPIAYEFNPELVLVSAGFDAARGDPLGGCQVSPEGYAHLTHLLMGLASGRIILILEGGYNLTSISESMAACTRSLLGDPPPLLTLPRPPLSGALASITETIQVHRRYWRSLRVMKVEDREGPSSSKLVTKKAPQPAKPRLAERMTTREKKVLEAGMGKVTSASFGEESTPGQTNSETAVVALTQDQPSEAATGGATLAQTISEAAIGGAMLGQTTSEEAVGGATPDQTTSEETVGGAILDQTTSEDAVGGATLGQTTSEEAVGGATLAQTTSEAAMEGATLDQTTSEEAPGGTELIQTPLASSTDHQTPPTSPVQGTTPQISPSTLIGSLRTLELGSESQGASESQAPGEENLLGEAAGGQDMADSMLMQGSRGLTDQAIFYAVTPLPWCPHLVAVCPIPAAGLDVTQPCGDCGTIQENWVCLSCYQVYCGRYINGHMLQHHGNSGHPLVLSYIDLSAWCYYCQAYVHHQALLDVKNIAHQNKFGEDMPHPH
As to the kind of experiment: HDAC enzyme activity inhibition (in vitro), HDAC6 assay. Type of experiment: biochemical. As to conditions: samples at 0.1, 1, 10, 100 and 1000 nM; 37° C. 60 minutes; fluorescence Ex 390, Em 460; read-out: HDAC6 IC50. The essentials: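 HDAC6 human recombinant enzyme with fluorimetric substrate; […]. Reaction 60 min at 37° C, then developer 30 min at 37° C; fluorescence read at Ex 390/Em 460.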

The target of the next experiment is T2, HDAC1 (Homo sapiens, UniProt Q13547).
T2 construct: purchased Enzolifesciences BML-AK511
As to the kind of experiment: HDAC enzyme activity inhibition (in vitro), HDAC1 Fluorimetric Drug Discovery Assay Kit. Type of experiment: biochemical. As to conditions: samples at 100, 1000 and 10000 nM; 37° C. 60 minutes; fluorescence Ex 390, Em 460; read-out: HDAC1 IC50. The essentials:
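Compounds at 100, 1000, 10000 nM (HDAC1) or 0.1, 1, 10, 100, 1000 nM (HDAC6); 37° C, 60 min; developer, 37° C, 30 min; fluorescence Ex 390/Em 460.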

T2 sequence (Q13547 whole entry): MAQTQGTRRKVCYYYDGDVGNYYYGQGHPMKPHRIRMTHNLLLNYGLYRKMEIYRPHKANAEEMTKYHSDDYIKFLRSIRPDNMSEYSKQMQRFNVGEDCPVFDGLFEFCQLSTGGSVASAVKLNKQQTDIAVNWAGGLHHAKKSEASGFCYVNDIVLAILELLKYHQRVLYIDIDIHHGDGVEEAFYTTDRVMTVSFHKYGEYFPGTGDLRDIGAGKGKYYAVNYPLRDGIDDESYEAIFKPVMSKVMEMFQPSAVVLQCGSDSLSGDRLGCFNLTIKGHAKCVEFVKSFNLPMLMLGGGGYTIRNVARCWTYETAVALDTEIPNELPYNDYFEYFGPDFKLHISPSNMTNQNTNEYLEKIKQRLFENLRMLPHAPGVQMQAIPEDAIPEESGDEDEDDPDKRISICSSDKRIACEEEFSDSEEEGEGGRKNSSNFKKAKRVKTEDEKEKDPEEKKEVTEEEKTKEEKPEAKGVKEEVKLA

For orientation: IC50 means the midpoint of a concentration-inhibition curve. Consider `O=c1n(Cc2ccc(-c3nnc(C(F)F)o3)cn2)c2ccccc2n1C1CCN(C2COC2)CC1` [Compound 78, 1-((5-(5-(difluoromethyl)-1,3,4-oxadiazole-2-yl)pyridine-2-yl)methyl)-3-(1-(oxetan-3-yl)piperidine-4-yl)-1,3-dihydro-2H-benzo[d]imidazole-2-one], for which the figures for the IC50 at HDAC6 human recombinant and on HDAC1 were 79 nM and more than 10000 nM, respectively.

For the compound `CN1CCC(n2c(=O)n(Cc3ccc(-c4nnc(C(F)F)o4)cc3)c3cc(F)ccc32)CC1` [Compound 79, 3-(4-(5-(difluoromethyl)-1,3,4-oxadiazole-2-yl)benzyl)-5-fluoro-1-(1-methylpiperidine-4-yl)-1,3-dihydro-2H-benzo[d]imidazole-2-one], the results for the IC50 at HDAC6 human recombinant and on HDAC1 were 66 nM and more than 10000 nM, respectively.

In the case of `O=c1n(Cc2ccc(-c3nnc(C(F)F)o3)cc2)c2cc(F)ccc2n1C1CCN(C2COC2)CC1` [Compound 80, 3-(4-(5-(difluoromethyl)-1,3,4-oxadiazole-2-yl)benzyl)-5-fluoro-1-(1-(oxetan-3-yl)piperidine-4-yl)-1,3-dihydro-2H-benzo[d]imidazole-2-one], the IC50 on HDAC6 human recombinant was 61 nM; at HDAC1, more than 10000 nM.

As for `CN1CCC(n2c(=O)n(Cc3ccc(-c4nnc(C(F)F)o4)cn3)c3cc(Cl)c(Cl)cc32)CC1` [Compound 81, 5,6-dichloro-1-((5-(5-(difluoromethyl)-1,3,4-oxadiazole-2-yl)pyridine-2-yl)methyl)-3-(1-methylpiperidine-4-yl)-1,3-dihydro-2H-benzo[d]imidazole-2-one], the IC50 was 15 nM on HDAC6 human recombinant and more than 10000 nM on HDAC1.

On to `O=c1n(Cc2ccc(-c3nnc(C(F)F)o3)cn2)c2cc(Cl)c(Cl)cc2n1C1CCN(C2COC2)CC1` [Compound 82, 5,6-dichloro-1-((5-(5-(difluoromethyl)-1,3,4-oxadiazole-2-yl)pyridine-2-yl)methyl)-3-(1-(oxetan-3-yl)piperidine-4-yl)-1,3-dihydro-2H-benzo[d]imidazole-2-one], for which the IC50 is 23 nM at HDAC6 human recombinant and more than 10000 nM on HDAC1.

Regarding `CN1CCC(n2c(=O)n(Cc3ccc(-c4nnc(C(F)F)o4)cn3)c3cc(F)c(F)cc32)CC1` [Compound 83, 1-((5-(5-(difluoromethyl)-1,3,4-oxadiazole-2-yl)pyridine-2-yl)methyl)-5,6-difluoro-3-(1-methylpiperidine-4-yl)-1,3-dihydro-2H-benzo[d]imidazole-2-one], the IC50 is 49 nM on HDAC6 human recombinant and more than 10000 nM at HDAC1.

As for `O=c1n(Cc2ccc(-c3nnc(C(F)F)o3)cn2)c2cc(F)c(F)cc2n1C1CCN(C2COC2)CC1` [Compound 84, 1-((5-(5-(difluoromethyl)-1,3,4-oxadiazole-2-yl)pyridine-2-yl)methyl)-5,6-difluoro-3-(1-(oxetan-3-yl)piperidine-4-yl)-1,3-dihydro-2H-benzo[d]imidazole-2-one], the IC50 was 36 nM on HDAC6 human recombinant and more than 10000 nM at HDAC1.

Regarding `CN1CCC(n2c(=O)n(Cc3ccc(-c4nnc(C(F)F)o4)cc3)c3cc(Cl)c(Cl)cc32)CC1` [Compound 85, 5,6-dichloro-1-(4-(5-(difluoromethyl)-1,3,4-oxadiazole-2-yl)benzyl)-3-(1-methylpiperidine-4-yl)-1,3-dihydro-2H-benzo[d]imidazole-2-one], the concentration for half-maximal inhibition (IC50) on HDAC6 human recombinant is 31 nM; on HDAC1, more than 10000 nM.

On to `O=c1n(Cc2ccc(-c3nnc(C(F)F)o3)cc2)c2cc(Cl)c(Cl)cc2n1C1CCN(C2COC2)CC1` [Compound 86, 5,6-dichloro-1-(4-(5-(difluoromethyl)-1,3,4-oxadiazole-2-yl)benzyl)-3-(1-(oxetan-3-yl)piperidine-4-yl)-1,3-dihydro-2H-benzo[d]imidazole-2-one], for which the results for the IC50 at HDAC6 human recombinant and on HDAC1 were 28 nM and more than 10000 nM, respectively.

Consider `CN1CCC(n2c(=O)n(Cc3ccc(-c4nnc(C(F)F)o4)cc3F)c3cc(Cl)c(Cl)cc32)CC1` [Compound 87, 5,6-dichloro-1-(4-(5-(difluoromethyl)-1,3,4-oxadiazole-2-yl)-2-fluorobenzyl)-3-(1-methylpiperidine-4-yl)-1,3-dihydro-2H-benzo[d]imidazole-2-one], for which the half-inhibitory concentration (IC50) is 63 nM at HDAC6 human recombinant and more than 10000 nM on HDAC1.

On to `O=c1n(Cc2ccc(-c3nnc(C(F)F)o3)cc2F)c2cc(Cl)c(Cl)cc2n1C1CCN(C2COC2)CC1` [Compound 88, 5,6-dichloro-1-(4-(5-(difluoromethyl)-1,3,4-oxadiazole-2-yl)-2-fluorobenzyl)-3-(1-(oxetan-3-yl)piperidine-4-yl)-1,3-dihydro-2H-benzo[d]imidazole-2-one], for which the IC50 is 38 nM on HDAC6 human recombinant and more than 10000 nM at HDAC1.

`CN1CCC(n2c(=O)n(Cc3ccc(-c4nnc(C(F)F)o4)cn3)c3cc(C(F)(F)F)ccc32)CC1` [Compound 89, 3-((5-(5-(difluoromethyl)-1,3,4-oxadiazole-2-yl)pyridine-2-yl)methyl)-1-(1-methylpiperidine-4-yl)-5-(trifluoromethyl)-1,3-dihydro-2H-benzo[d]imidazole-2-one]: the IC50 on HDAC6 human recombinant is 38 nM; on HDAC1 it was more than 10000 nM.

Take `O=c1n(Cc2ccc(-c3nnc(C(F)F)o3)cn2)c2cc(C(F)(F)F)ccc2n1C1CCN(C2COC2)CC1` [Compound 90, 3-((5-(5-(difluoromethyl)-1,3,4-oxadiazole-2-yl)pyridine-2-yl)methyl)-1-(1-(oxetan-3-yl)piperidine-4-yl)-5-(trifluoromethyl)-1,3-dihydro-2H-benzo[d]imidazole-2-one]: the IC50 on HDAC6 human recombinant was 31 nM; on HDAC1, more than 10000 nM.

`CN1CCC(n2c(=O)n(Cc3ccc(-c4nnc(C(F)F)o4)cc3F)c3cc(C(F)(F)F)ccc32)CC1` [Compound 91]: the concentration for half-maximal inhibition (IC50) at HDAC6 human recombinant was 58 nM; at HDAC1, more than 10000 nM.

Turning to `O=c1n(Cc2ccc(-c3nnc(C(F)F)o3)cc2F)c2cc(C(F)(F)F)ccc2n1C1CCN(C2COC2)CC1` [Compound 92, 3-(4-(5-(difluoromethyl)-1,3,4-oxadiazole-2-yl)-2-fluorobenzyl)-1-(1-(oxetan-3-yl)piperidine-4-yl)-5-(trifluoromethyl)-1,3-dihydro-2H-benzo[d]imidazole-2-one], the IC50 on HDAC6 human recombinant was 62 nM; on HDAC1, more than 10000 nM.

On to `CN1CCC(n2c(=O)n(Cc3ccc(-c4nnc(C(F)F)o4)cc3F)c3cc(F)c(F)cc32)CC1` [Compound 93, 1-(4-(5-(difluoromethyl)-1,3,4-oxadiazole-2-yl)-2-fluorobenzyl)-5,6-difluoro-3-(1-methylpiperidine-4-yl)-1,3-dihydro-2H-benzo[d]imidazole-2-one], for which the IC50 is 40 nM at HDAC6 human recombinant and more than 10000 nM at HDAC1.

Take `O=c1n(Cc2ccc(-c3nnc(C(F)F)o3)cc2F)c2cc(F)c(F)cc2n1C1CCN(C2COC2)CC1` [Compound 94, 1-(4-(5-(difluoromethyl)-1,3,4-oxadiazole-2-yl)-2-fluorobenzyl)-5,6-difluoro-3-(1-(oxetan-3-yl)piperidine-4-yl)-1,3-dihydro-2H-benzo[d]imidazole-2-one]: the IC50 on HDAC6 human recombinant was 45 nM; at HDAC1, more than 10000 nM.

`CN1CCC(n2c(=O)n(Cc3ccc(-c4nnc(C(F)F)o4)cc3)c3cc(F)c(F)cc32)CC1` [Compound 95, 1-(4-(5-(difluoromethyl)-1,3,4-oxadiazole-2-yl)benzyl)-5,6-difluoro-3-(1-methylpiperidine-4-yl)-1,3-dihydro-2H-benzo[d]imidazole-2-one]: the IC50 at HDAC6 human recombinant is 51 nM; at HDAC1 it was more than 10000 nM.

Regarding `O=c1n(Cc2ccc(-c3nnc(C(F)F)o3)cc2)c2cc(F)c(F)cc2n1C1CCN(C2COC2)CC1` [Compound 96, 1-(4-(5-(difluoromethyl)-1,3,4-oxadiazole-2-yl)benzyl)-5,6-difluoro-3-(1-(oxetan-3-yl)piperidine-4-yl)-1,3-dihydro-2H-benzo[d]imidazole-2-one], the values for the IC50 at HDAC6 human recombinant and on HDAC1 were 36 nM and more than 10000 nM, respectively.
